Where two headings read alike, the source gives them in different places.

Data set [1] has as its target T1, histamine H4 receptor (Homo sapiens, UniProt Q9H3N8).
T1 construct: expressed in transfected cells; host or cells: HEK-293 cells, transient transfection with pCINeo vector; membranes
The data set is described as follows: 3H-histamine competition binding assay, membranes of transfected HEK-293 cells. Here is the method:
In this assay, membranes were prepared from HEK-293 cells transiently transfected with the pCINeo expression vector harboring the histamine H4 receptor by homogenization of the cells on ice in TE buffer (50 mM Tris-HCl buffer, pH 7.4, containing 5 mM EDTA), 1 mM benzamidine, 2 μg/ml aprotinin, 1 μg/ml leupeptin, and 1 μg/ml pepstatin. The homogenate was centrifuged at 40,000 g for 20 minutes at 4° C. This step was repeated, and the resulting pellet was resuspended in TE buffer. Aliquots were frozen at −70° C. until needed. On the day of assay, membranes were thawed and diluted with TE buffer. Competition radioligand binding assays were performed with increasing concentrations of test compound in the presence of [^3H]-histamine incubated at 25° C. for 1 h in a total volume of 0.5 ml of 50 mM Tris, 5 mM EDTA, pH 7.4. All binding reactions were terminated by filtration under vacuum onto polyethylenimine (0.3%) presoaked Unifilters (PerkinElmer Life Sciences) or Whatman GF/B filters (Whatman, Clifton, N.J.) followed by three brief washes with 4 ml of ice-cold TE buffer. Bound radiolabel was determined by liquid scintillation counting. For all of the radioligand competition binding assays, IC50 values and Hill slopes were determined by Hill transformation of the data and Ki values were determined by the Cheng-Prusoff equation.

The target in data set [2] is T1, histamine H4 receptor. The experiment in a line: FLIPR Ca2+ assay in HEK-293 cells stably expressing histamine H4 receptor and Gαqi5. The format is cell-based. The conditions noted are these: Kb for antagonists and inverse agonists, EC50 for partial agonists; block of histamine-induced Ca2+ increase. The source says: Histamine H4 receptors from mammalian species have been cloned. Methods to clone, express, and assess the potency and functional activity of such cloned genes are well known to those skilled in the art of molecular biology. […] Before testing, cells are loaded with a Ca^+2 sensitive fluorescent dye, in this case Fluo-4. In the case of partial agonist or agonist ligands, addition of compound to the cells leads to the increase in intracellular Ca^+2 which is detected by FLIPR (Fluorescence Imaging Plate Reader; Molecular Devices, Sunnyvale, Calif.) technology. […] The fluorescence intensities measured before addition of the test compound are subtracted from the fluorescence intensities at later time points. Peak response values determined at each concentration of ligand are expressed as a percentage of the response obtained with the full agonist histamine. Concentration versus response data are analyzed to obtain compound potency as Kb values for antagonists and inverse agonists and as EC50 values for partial agonists.

Data set [3] concerns thermal hyperalgesia. The experiment in a line: Complete Freund's adjuvant-induced thermal hyperalgesia. The format is in vivo, rat. The note with it: 30 minutes before testing, 48 hours after CFA, thermal stimulus. Here is the method: To assess the effectiveness of representative compounds of the invention against hyperalgesia, animals were tested in an acute model of adjuvant-induced thermal hyperalgesia (see for example, Honore, et al. Behavioural Brain Research 167 (2006) 355-364; Carroll, et al. US Patent application US 2006/0025614A 1). To prepare animals for the model, a solution of Complete Freund's adjuvant (150 microliters of a 50% aqueous solution, Sigma Chemical Company, St. Louis, Mo.) was injected into the plantar surface of test paw of the animal (rat). Rats so injected develop a hyperalgesia to thermal stimulation which is assessed 48 hours after injection of the Complete Freund's adjuvant using a commercially available paw thermal stimulator (UARDG, Dept. of Anesthesiology, Univ. California at San Diego, La Jolla, Calif.). For testing, rats were placed individually in a so-called ‘hot box’ (i.e. Plexiglass cubicles mounted on a glass surface) maintained at 30° C., and allowed a 30 minute habituation period. A thermal stimulus, in the form of radiant heat emitted from a focused projection bulb, was then applied to the plantar surface of each hind paw. The stimulus current was maintained (e.g. at 4.5 Amp) and the time of exposure set to limit the extent of possible tissue damage (e.g. maximum of 20 seconds exposure to thermal heating from the projection bulb). The time (in seconds) for the withdrawal of the paw that was injected with the Complete Freund's adjuvant (CFA) and subjected to the thermal stimulus was recorded, and this was compared to the time (in seconds) for withdrawal of the uninjected paw subjected to the same thermal stimulus. […] To test the effect of a compound on the hyperalgesia, the test compound is dissolved in a vehicle (e.g. water or saline) and administered by i.p. (intraperitoneal) injection 30 minutes before the testing of the animal's response to the thermal stimulus to the paws. The antihyperalgesic activity of the compound in blocking the pain is shown by an increase in the time to withdraw the CFA-injected paw subjected to thermal stimulus. Experiments are done with single-dose and escalating-dosages of the test compound, and dose response curves constructed to determine ED50 values.

The test system of data set [4] is inflammatory pain. The experiment in a line: Carrageenan-induced thermal hyperalgesia, hotbox assay. The note with it: 90 minutes after carrageenan, tested 30 minutes after dosing. The format is in vivo. The procedure: To assess the effectiveness of representative compounds of the invention against acute model inflammatory pain, animals were tested in an acute model of carrageenan-induced thermal hyperalgesia (see for example, Honore, et al. Behavioural Brain Research 167 (2006) 355-364; Porreca, et al. Journal of Pharmacology and Experimental Therapeutics (2006) vol. 318 pp. 195-205). Carrageenan was injected into the test paw of the animal, and after 90 minutes, the test drug was administered by intraperitoneal dosing. The effect on thermal hyperalgesia was assessed in a hotbox assay which was done 30 minutes after the intraperitoneal dosing of the test drug, and the MPE (maximal percent effect) reported by comparison to the control paw (not injected with carrageenan), according to 100 times the withdrawal latency of the carrageenan injected paw (in seconds) divided by the withdrawal latency of the control (not injected with carrageenan) paw.

For data set [5], the system named is neuropathic pain. The experiment in a line: Chung model: L5/L6 spinal nerve ligation, mechanical allodynia by von Frey filaments. Type of data set: in vivo, rat. The conditions noted are these: 100 micromole/kg i.p., 30 minutes before testing. Here is the method:
Animals were prepared for testing, by use of a surgical procedure that induces neuropathic pain in one paw. Male Sprague Dawley rats were purchased from Charles River (Portage, Mich.). Prior to surgery, animals were housed in groups and maintained in a temperature-regulated environment. Following nerve ligation surgery, animals were housed in groups, and had access to food and water ad libitum.
The L5 and L6 spinal nerves of anesthetized rats were tightly ligated in a manner described previously (see Kim and Chung, Pain (1992) vol. 50 pp. 355-363). An incision was made on the dorsal portion of the hip and the muscle was blunt-dissected to reveal the spinal processes. The L6 transverse process was removed, and the left side L5 and L6 spinal nerves were tightly ligated with 5.0 braided silk suture. The wound was cleaned, the membrane sewn with 4.0 dissolvable Vicryl suture and the skin closed with wound clips. The paw affected by the surgical procedure (the left paw) develops an allodynic response, a hypersensitivity to mechanical and other stimuli; neuropathic pain is assessed as an increased sensitivity in the surgically affected (left) allodynic paw compared to the control paw on the right side, and measured by comparing the response of the (left side) allodynic paw to the response of the unaffected right side control paw.
For the assessment of neuropathic pain, mechanical allodynia in the affected paw of animals that had undergone spinal nerve ligation was evaluated using testing with von Frey filaments. As described previously by S. R. Chaplan, et al (“Quantitative assessment of tactile allodynia in the rat paw” J. Neurosci. Meth. (1994) vol. 53 pp. 55-63), two weeks following surgery rats were acclimated to a testing box constructed of plexiglass with a wire mesh floor which allowed access to the plantar surface of the animal's hindpaws. Using an Up-Down method (Dixon, Annual Rev. Pharmacol. Toxicol. (1980) vol. 20, pp. 441-462; Chaplan et al. “Quantitative assessment of tactile allodynia in the rat paw” J. Neuroscience Methods (1994) vol. 53 pp. 55-63), von Frey filaments of increasing stiffness were applied to the plantar surface of the hindpaws and the withdrawal response of the animals was observed; for the surgically affected paw with neuropathic pain (the left side paw) the baseline level of allodynia has a withdrawal threshold of ≦4 g of pressure. By comparison, for the control paw without allodynia (in this case the right side paw), the typical withdrawal pressure is around 15 g. Representative compounds of the invention, administered intraperitoneally 30 minutes before testing, are able to reduce the symptoms of neuropathic pain and induce a dose-dependent increase in the withdrawal threshold for allodynic (left side) limb, up to a maximum effect of 15 g. The efficacy of the compound in reducing neuropathic pain at different doses is determined by comparing response in the surgery-affected paw versus the response in the control paw. This is expressed as the MPE (maximum percent effect), or 100 times the withdrawal threshold of the allodynic (left side) divided by the withdrawal threshold of the control (right side).

Data set [6] deals with osteoarthritis pain. The experiment in a line: MIA-induced knee joint osteoarthritis model, hind limb grip force. Type of data set: in vivo, rat. The conditions noted are these: 100 micromole/kg i.p.; grip force 20 days after MIA; % return to normalcy vs naïve group. The procedure:
Unilateral knee joint osteoarthritis was induced in rats by a single intra-articular (i.a.) injection of sodium monoiodoacetate (MIA) (Sigma-Aldrich, St. Louis, Mo.) (3 mg in 50 ul sterile isotonic saline) into the right knee joint cavity under light (1-3%) isoflurane anesthesia.
Pain behavior was assessed by measurement of hind limb grip force (GF) in adult osteoarthritic rats. Following the unilateral injection of MIA (male Sprague Dawley, 325-350 g, tested at 20 days following MIA injection), a behavioral measure of activity-induced pain was carried out. Measurements of the peak hind limb grip force were conducted by recording the maximum compressive force (CFmax), in grams of force, exerted on a hind limb strain gauge setup, in a commercially available grip force measurement system (Columbus Instruments, Columbus, Ohio).
During testing, each rat was gently restrained by grasping it around its rib cage and then allowed to grasp the wire mesh frame attached to the strain gauge. The experimenter then moved the animal in a rostral-to-caudal direction until the grip was broken. Each rat was sequentially tested twice at approximately 2-3 min interval to obtain a raw mean grip force (CFmax). This raw mean grip force data was in turn converted to a maximum hindlimb cumulative compressive force (CFmax), as the grams of force/kg of body weight, for each animal.
For evaluating the compound effects, the hind limb grip force was conducted 20 days following the intra-articular injection of MIA. A group of age-matched naïve (not injected with MIA) animals was added as a comparator to the drug-dosed groups. The vehicle control response for each group of MIA-treated animals was defined as the 0% response (0% effect), whereas the naïve control group was defined as the normal response and as 100% effect. The % effects for each dose group was expressed as % return of response to normalcy, compared to the naïve group. That is, the % effect=(Treatment CFmax−Vehicle CFmax)/[…]]×100). All experiments evaluating drug effects in this model were conducted in a randomized blinded fashion.

Data set [7] deals with mechanical allodynia after skin incision. The experiment in a line: Surgical skin incision model, mechanical allodynia by von Frey hair. The format is in vivo, rat. Here is the method: This is a surgical skin incision model (Joshi, et al. Pain 123 (2006) 75-82). Animals (rats) were prepared for testing by subjecting them to a surgical procedure carried out under sterile conditions, where the plantaris muscle was elevated and incised longitudinally with the origin and insertion of the muscle remaining intact. The skin was then closed with two mattress sutures (e.g. 5-0 nylon sutures). After surgery, animals were allowed to recover on a warming plate and housed individually in cages with soft bedding. […] Animals were tested for mechanical allodynia using von Frey hair mechanical stimulation 2, 24, and 48 h after surgery as described for the Chung model.

[8] abbreviates: displacement of [3H]-histamine, 25° C., 1 h, read-out: Potency in Competition Binding Assay.

T1 sequence (Q9H3N8 whole entry, species assumed): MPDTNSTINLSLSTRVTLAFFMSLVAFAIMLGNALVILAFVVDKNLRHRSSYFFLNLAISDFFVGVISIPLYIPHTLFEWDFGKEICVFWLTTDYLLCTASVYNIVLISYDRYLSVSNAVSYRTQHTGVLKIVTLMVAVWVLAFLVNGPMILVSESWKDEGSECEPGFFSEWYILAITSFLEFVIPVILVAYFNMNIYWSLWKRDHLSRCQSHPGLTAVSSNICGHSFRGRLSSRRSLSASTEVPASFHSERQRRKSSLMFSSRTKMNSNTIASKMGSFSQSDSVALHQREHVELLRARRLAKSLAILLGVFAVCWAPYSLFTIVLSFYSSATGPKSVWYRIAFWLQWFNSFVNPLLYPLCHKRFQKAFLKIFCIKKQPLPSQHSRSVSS

`CN1CCN(c2cc(-c3cccnc3)nc(N)n2)CC1.O=C(O)/C=C\C(=O)O` [Example 2, 4-(4-Methylpiperazin-1-yl)-6-(pyridin-3-yl)pyrimidin-2-amine, maleate]: the melting point was 175 to 178 °C (dec.). For the same compound, the Ki in data set [1] (setting [8]) came out at 178 nM. Also, the “Potency in the FLIPR assay” value in data set [2] is 200 nM. The MPE in data set [3] (30 micromole/kg i.p.) amounted to 51%. In addition, the MPE in data set [3] (100 micromole/kg i.p.) worked out at 83%.

As for `Nc1nc2c(c(N3CC[C@@H](N)C3)n1)CCCc1ccccc1-2` [Example 4, 4-((3R)-3-Amino-pyrrolidin-1-yl)-6,7-dihydro-5H-benzo[6,7]cyclohepta[1,2-d]pyrimidin-2-ylamine], the MPE was 68% in data set [4] (100 micromole/kg i.p.) and 47% in data set [5].

Turning to `Nc1nc2c(c(N3CCNCC3)n1)CCCc1ccccc1-2` [Example 5, 4-piperazin-1-yl-6,7-dihydro-5H-benzo[6,7]cyclohepta[1,2-d]pyrimidin-2-ylamine], the MPE in data set [4] (100 micromole/kg i.p.) turned out to be 23%; in data set [5], 28%. The Ki in data set [1] (setting [8]) worked out at 80 nM. Besides, the “Potency in the FLIPR assay” value in data set [2] is on record as 15 nM.

`O=S(=O)(NCCc1c[nH]cn1)NCc1ccc(Cl)c(Cl)c1` [Example 7, Sulfamide, N-[(3,4-dichlorophenyl)methyl]-N′-[2-(1H-imidazol-4-yl)ethyl]-]: the MPE was 33% in data set [4] (3 micromole/kg i.p.); 42% in data set [4] (10 micromole/kg i.p.); 93% in data set [4] (30 micromole/kg i.p.); 33% in data set [7] (3 micromole/kg i.p.); 50% in data set [7] (10 micromole/kg i.p.). Also, the “% Effect” value in data set [6] turned out to be 22%. Besides, the Ki in data set [1] was 33 nM. In data set [2], the “Potency in the FLIPR assay” value was found to be 34 nM.

What is called melting point is the temperature of the solid-liquid transition.
